Experimental data as given in ChEMBL document CHEMBL1201862, “PubChem BioAssay data set” (2004).
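Grown in 96-well plates, cells were treated for 48 hours with each compound at five concentrations. Insufficient inhibition: endpoint recorded as highest concentration tested. GI50 is the concentration that inhibits growth by half.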 Calls of active or inactive are those of the source. Cut-off read from the data, not from the text of the source: active = GI50 up to about 1.1 µM and inactive = higher.

Columns and labels:
Experiment in all cases: NCI anticancer screen, dose series, 48 h
A549 = system: A549
CCRF-CEM = system: CCRF-CEM
COLO 205 = system: COLO 205
EKVX = system: EKVX
HOP-62 = system: HOP-62
HOP-92 = system: HOP-92
M19-MEL = system: M19-MEL
MOLT-4 = system: MOLT-4
OVCAR-5 = system: OVCAR-5
SF-268 = system: SF-268
SN12C = system: SN12C
SNB-78 = system: SNB-78
UACC-62 = system: UACC-62
UO-31 = system: UO-31
BT-549 = system: BT-549
HCT-116 = system: HCT-116
NCI-H522 = system: NCI-H522
NCI/ADR-RES = system: NCI/ADR-RES
T47D = system: T47D
KM-20L2 = system: KM-20L2

SMILES	GI50 (A549)	GI50 (CCRF-CEM)	GI50 (COLO 205)	GI50 (EKVX)	GI50 (HOP-62)	GI50 (HOP-92)	GI50 (M19-MEL)	GI50 (MOLT-4)	GI50 (OVCAR-5)	GI50 (SF-268)	GI50 (SN12C)	GI50 (SNB-78)	GI50 (UACC-62)	GI50 (UO-31)	GI50 (BT-549)	GI50 (HCT-116)	GI50 (NCI-H522)	GI50 (NCI/ADR-RES)	GI50 (T47D)	GI50 (KM-20L2)
O=C1c2ccccc2C(=O)c2c(O)c(NCCCNCCO)cc(O)c21	10.3 µM (inactive)	2.47 µM (inactive)	5.92 µM (inactive)	13.7 µM (inactive)	2.44 µM (inactive)	12.4 µM (inactive)	13.7 µM (inactive)	2.74 µM (inactive)	11.3 µM (inactive)	7.91 µM (inactive)	10.5 µM (inactive)	11.2 µM (inactive)	18.7 µM (inactive)	5.87 µM (inactive)	–	–	–	–	–	–
Cc1cc(O)c(-c2cc(O)c(C)cc2O)cc1O	17.8 µM (inactive)	1.08 µM (active)	7.16 µM (inactive)	8.99 µM (inactive)	16.7 µM (inactive)	2.25 µM (inactive)	–	2.06 µM (inactive)	16.6 µM (inactive)	19.1 µM (inactive)	6.25 µM (inactive)	–	15.6 µM (inactive)	1.92 µM (inactive)	12.2 µM (inactive)	5.55 µM (inactive)	4.04 µM (inactive)	26.4 µM (inactive)	2.43 µM (inactive)	–
Clc1c2nc3ccccc3c-2[nH]c2ccccc12	34 µM (inactive)	19.2 µM (inactive)	2.86 µM (inactive)	10.6 µM (inactive)	47.1 µM (inactive)	> 100 µM (inactive)	–	2.9 µM (inactive)	> 100 µM (inactive)	64.3 µM (inactive)	32.7 µM (inactive)	–	48.8 µM (inactive)	7.98 µM (inactive)	64.1 µM (inactive)	8.55 µM (inactive)	20.1 µM (inactive)	23.4 µM (inactive)	17.7 µM (inactive)	–
Cc1cc(O)cc2c1O[C@@]1(C)CCC3[C@@]4(C)CC[C@H](O)C(C)(C)C4CC[C@@]3(C)[C@H]1C2 (some centres undefined)	5.15 µM (inactive)	2.55 µM (inactive)	17.5 µM (inactive)	12.6 µM (inactive)	–	5.09 µM (inactive)	11 µM (inactive)	1.55 µM (inactive)	–	–	11.6 µM (inactive)	5.98 µM (inactive)	8.11 µM (inactive)	8.45 µM (inactive)	–	4.31 µM (inactive)	6.52 µM (inactive)	–	–	–
CC(NS(=O)(=O)c1ccc([N+](=O)[O-])cc1)C(=O)O (centres undefined)	> 100 µM (inactive)	> 100 µM (inactive)	> 100 µM (inactive)	> 100 µM (inactive)	–	> 100 µM (inactive)	–	> 100 µM (inactive)	> 100 µM (inactive)	> 100 µM (inactive)	> 100 µM (inactive)	–	> 100 µM (inactive)	> 100 µM (inactive)	–	–	> 100 µM (inactive)	–	–	> 100 µM (inactive)
CCN(CC)CCn1nc(N)c2nc3cc(Cl)ccc3nc21	49.8 µM (inactive)	> 10 µM (inactive)	35.7 µM (inactive)	80 µM (inactive)	> 100 µM (inactive)	> 100 µM (inactive)	–	33.4 µM (inactive)	89.1 µM (inactive)	75.5 µM (inactive)	45.1 µM (inactive)	–	45.9 µM (inactive)	23.8 µM (inactive)	> 100 µM (inactive)	48.4 µM (inactive)	31.8 µM (inactive)	35.3 µM (inactive)	> 100 µM (inactive)	–
COc1ccc(CC2OC3(CCCCC3)CC3CCCCN32)cc1 (centres undefined)	> 100 µM (inactive)	47 µM (inactive)	> 100 µM (inactive)	> 100 µM (inactive)	> 100 µM (inactive)	98.9 µM (inactive)	–	75.9 µM (inactive)	> 100 µM (inactive)	> 100 µM (inactive)	> 100 µM (inactive)	–	> 100 µM (inactive)	> 100 µM (inactive)	> 100 µM (inactive)	43.8 µM (inactive)	> 100 µM (inactive)	50.1 µM (inactive)	> 100 µM (inactive)	–
Cc1ccc(Cc2n[nH]c(=O)n2Nc2ccccc2)cc1	> 100 µM (inactive)	> 100 µM (inactive)	> 100 µM (inactive)	81.5 µM (inactive)	> 100 µM (inactive)	65.2 µM (inactive)	–	> 100 µM (inactive)	> 100 µM (inactive)	> 100 µM (inactive)	> 100 µM (inactive)	–	> 100 µM (inactive)	68.2 µM (inactive)	> 100 µM (inactive)	> 100 µM (inactive)	> 100 µM (inactive)	> 100 µM (inactive)	89.9 µM (inactive)	–
COC(=O)CC1C(=O)OCc2c1cc1n(c2=O)Cc2c-1nc1ccccc1c2OC (centres undefined)	59.8 µM (inactive)	6 µM (inactive)	> 100 µM (inactive)	> 100 µM (inactive)	11 µM (inactive)	20.7 µM (inactive)	69.7 µM (inactive)	3.93 µM (inactive)	58.9 µM (inactive)	19.3 µM (inactive)	41.4 µM (inactive)	–	19.7 µM (inactive)	16.3 µM (inactive)	–	13.4 µM (inactive)	25.8 µM (inactive)	–	–	> 100 µM (inactive)
CCOC(=O)C1=C(C)N(NC(N)=O)C2(N)N(NC(N)=O)C(C)=C(C(=O)OCC)C12C#N (centres undefined)	> 100 µM (inactive)	–	–	> 100 µM (inactive)	> 100 µM (inactive)	–	> 100 µM (inactive)	> 100 µM (inactive)	> 100 µM (inactive)	> 100 µM (inactive)	> 100 µM (inactive)	–	> 100 µM (inactive)	> 100 µM (inactive)	–	> 100 µM (inactive)	> 100 µM (inactive)	–	–	> 100 µM (inactive)
COc1ccc(/C=C/c2cc(OC)c(OC)c(OC)c2)cc1OC	> 100 µM (inactive)	> 100 µM (inactive)	> 100 µM (inactive)	> 100 µM (inactive)	44 µM (inactive)	80.5 µM (inactive)	–	> 100 µM (inactive)	> 100 µM (inactive)	> 67.9 µM (inactive)	> 100 µM (inactive)	36.1 µM (inactive)	> 80.7 µM (inactive)	> 92.7 µM (inactive)	–	> 100 µM (inactive)	68.5 µM (inactive)	–	–	> 100 µM (inactive)
CC(C)(C)c1cc(OCc2nnc3sc(S)nn23)c(Cl)cc1OCc1nnc2sc(S)nn12	35.1 µM (inactive)	11.3 µM (inactive)	39.1 µM (inactive)	30.3 µM (inactive)	44.1 µM (inactive)	17.5 µM (inactive)	–	23.8 µM (inactive)	35.2 µM (inactive)	24.9 µM (inactive)	30.4 µM (inactive)	–	17.4 µM (inactive)	43.9 µM (inactive)	30.5 µM (inactive)	22.1 µM (inactive)	17.3 µM (inactive)	78.5 µM (inactive)	19 µM (inactive)	–
CCCCCC(=O)C(C)C1=Nc2nnc(CCCCCCCc3nnc4n3C(=O)C(C(C)C(=O)CCCCC)=N4)n2C1=O (centres undefined)	> 100 µM (inactive)	> 100 µM (inactive)	> 100 µM (inactive)	> 100 µM (inactive)	> 100 µM (inactive)	–	> 100 µM (inactive)	> 100 µM (inactive)	> 100 µM (inactive)	> 100 µM (inactive)	> 100 µM (inactive)	–	> 100 µM (inactive)	> 100 µM (inactive)	–	> 100 µM (inactive)	> 100 µM (inactive)	–	–	> 100 µM (inactive)
NC(=O)c1ncn2c(=O)n(CCl)nnc12	> 100 µM (inactive)	22.4 µM (inactive)	50.2 µM (inactive)	> 100 µM (inactive)	> 100 µM (inactive)	> 100 µM (inactive)	–	> 100 µM (inactive)	> 100 µM (inactive)	> 100 µM (inactive)	> 100 µM (inactive)	–	76 µM (inactive)	> 100 µM (inactive)	> 100 µM (inactive)	28.2 µM (inactive)	96.8 µM (inactive)	48.9 µM (inactive)	94.2 µM (inactive)	–
Cc1ccc(S(=O)(=O)N/N=C2\CCCCC23CCC(=O)NC3)cc1 (centres undefined)	> 100 µM (inactive)	> 100 µM (inactive)	> 100 µM (inactive)	–	> 100 µM (inactive)	–	> 100 µM (inactive)	> 100 µM (inactive)	–	> 100 µM (inactive)	> 100 µM (inactive)	> 100 µM (inactive)	> 100 µM (inactive)	> 100 µM (inactive)	–	> 100 µM (inactive)	> 100 µM (inactive)	–	–	> 100 µM (inactive)
C[C@H]1C(=O)CC[C@]2(C)CCC(C(C)(C)O)CC12O (some centres undefined)	> 100 µM (inactive)	> 100 µM (inactive)	> 100 µM (inactive)	> 100 µM (inactive)	> 100 µM (inactive)	> 100 µM (inactive)	–	> 100 µM (inactive)	> 100 µM (inactive)	> 100 µM (inactive)	> 100 µM (inactive)	> 100 µM (inactive)	> 100 µM (inactive)	> 100 µM (inactive)	–	> 100 µM (inactive)	> 100 µM (inactive)	–	–	> 100 µM (inactive)
COc1ccc(C2=NC(CO)[C@H](c3ccccc3)O2)cc1OC (some centres undefined)	> 100 µM (inactive)	> 100 µM (inactive)	> 100 µM (inactive)	–	> 100 µM (inactive)	> 100 µM (inactive)	> 100 µM (inactive)	> 100 µM (inactive)	> 100 µM (inactive)	> 100 µM (inactive)	> 100 µM (inactive)	–	53.6 µM (inactive)	> 100 µM (inactive)	–	> 100 µM (inactive)	> 100 µM (inactive)	–	–	> 100 µM (inactive)
